Source: patent publication US9617285B2, “1-hydroxy-benzooxaboroles as antiparasitic agents” (priority 2013, dated 2017)

Columns and labels:
Type in all cases: in vivo
Uncinaria stenocephala = experiment: Experimental hookworm infections in dogs, U. stenocephala; conditions: oral, point dose of no greater than 25 mg/kg bodyweight, by Day 5
Procedure: (§1) Activity of Example 1 Compound Against Experimental Hookworm Infections in Dogs
(§2) The antihelminthic activity of the Example 1 compound, when administered orally at a point dose of no greater than 25 mg/kg bodyweight, is evaluated against experimental infections of the hookworms Ancylostoma caninum and Uncinaria stenocephala in dogs. Four (4) beagle dogs in good health are inoculated with 3rd-stage infective larvae of each hookworm species, per W.A.A.V.P. Guidelines (Jacobs, D. E., A. Arakawa, C. H. Courtney, et al., 1994. Vet. Parasitol. 52: 179-202) so as to provide sufficient time for development of full patency. Fecal egg counts are conducted twice before treatment (Day-2 and Day-1). On Day 0, test article (technical active dissolved in 55-65% polyethylene glycol-300, 25-35% propylene glycol and 10-20% water) is administered to all four dogs via esophageal feeding tube. Fecal egg counts are conducted post-treatment on Days 3, 5 and 7. The average of two pre-treatment fecal egg counts is used for comparison to post-treatment egg counts for the purposes of calculating efficacy (geometric mean % reduction in fecal egg count) against each hookworm species.

Ancylostoma caninum = experiment: Experimental hookworm infections in dogs, A. caninum; conditions: oral, point dose of no greater than 25 mg/kg bodyweight, by Day 3
Procedure: as §1, §2

[1] = Tolerability of treatment in hookworm-infected dogs; conditions: oral, point dose of no greater than 25 mg/kg bodyweight
Procedure: as §2

C[C@](C#N)(COc1ccc2c(c1Cl)B(O)OC2)NC(=O)c1ccc(OC(F)(F)F)cc1 (single isomer, unassigned) [Example 1]
reduction in U. stenocephala fecal egg count (Uncinaria stenocephala): > 50% | reduction in A. caninum fecal egg counts (Ancylostoma caninum): > 50% | tolerability of treatment [1]: well tolerated
